Data taken from US20240158446A1, “CYCLIC COMPOUND HAVING SELECTIVE INHIBITORY ACTION ON KRAS OVER HRAS AND NRAS” (CHUGAI SEIYAKU KABUSHIKI KAISHA, priority 2021, published 2024).
Read-outs that look alike come from different tables or passages of the source.

Columns and labels:
[1] = molecular target: GDP-bound NRAS wild-type protein (Homo sapiens, UniProt P01111); assay: Binding to NRAS by surface plasmon resonance (SPR), Single Cycle Kinetics; conditions: for NRAS/KRAS (ratio of KD value for NRAS to KD value for KRAS): SPR, GDP-bound NRAS wild-type protein vs GDP-bound KRAS wild-type protein; for NRAS/KRAS (ratio of KD value with respect to GDP-bound NRAS wild-type protein to KD value with respect to KRAS): SPR KD ratio NRAS/KRAS, class symbols
[2] = molecular target: GDP-bound HRAS wild-type protein (Homo sapiens, UniProt P01112); assay: Binding to HRAS by surface plasmon resonance (SPR), Single Cycle Kinetics; conditions: for HRAS/KRAS (ratio of KD value for HRAS to KD value for KRAS): SPR, GDP-bound HRAS wild-type protein vs GDP-bound KRAS wild-type protein; for HRAS/KRAS (ratio of KD value with respect to GDP-bound HRAS wild-type protein to KD value with respect to KRAS): SPR KD ratio HRAS/KRAS, class symbols
[3] = molecular target: GDP-bound KRAS wild-type protein (Homo sapiens, UniProt P01116); assay: Binding to KRAS by surface plasmon resonance (SPR), Single Cycle Kinetics; conditions: GDP-bound KRAS wild-type protein, read-out: KRAS KD
[4] = tested on: human lung cancer strain NCI-H441;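 also: cell proliferation inhibition after four days measured by CellTiter-Glo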
[5] = SPR Single Cycle Kinetics, 1:1 binding model

Chain of GDP-bound HRAS wild-type protein (P01112 whole entry): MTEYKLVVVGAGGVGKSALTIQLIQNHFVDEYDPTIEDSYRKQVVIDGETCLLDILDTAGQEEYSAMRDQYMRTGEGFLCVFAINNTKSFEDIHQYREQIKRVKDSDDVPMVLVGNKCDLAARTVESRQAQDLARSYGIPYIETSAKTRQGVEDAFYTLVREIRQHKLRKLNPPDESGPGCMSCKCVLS
Chain of GDP-bound KRAS wild-type protein (P01116 whole entry): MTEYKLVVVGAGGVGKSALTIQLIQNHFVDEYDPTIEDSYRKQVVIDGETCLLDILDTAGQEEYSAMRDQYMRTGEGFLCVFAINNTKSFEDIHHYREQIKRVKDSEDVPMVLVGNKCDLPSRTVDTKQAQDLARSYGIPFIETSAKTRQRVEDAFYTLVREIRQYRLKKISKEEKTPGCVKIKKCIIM
Chain of GDP-bound NRAS wild-type protein (P01111 whole entry): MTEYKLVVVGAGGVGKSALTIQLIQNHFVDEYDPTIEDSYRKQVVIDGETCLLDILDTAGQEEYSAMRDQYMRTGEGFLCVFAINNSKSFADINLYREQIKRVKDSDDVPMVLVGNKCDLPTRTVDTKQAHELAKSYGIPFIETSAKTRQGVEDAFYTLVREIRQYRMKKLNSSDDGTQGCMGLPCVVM

| Structure (SMILES) | NRAS/KRAS (ratio of KD value for NRAS to KD value for KRAS) [1] | HRAS/KRAS (ratio of KD value for HRAS to KD value for KRAS) [2] | Kd ([3]; SPR, Single Cycle Kinetics) | IC50 [4] | NRAS/KRAS (ratio of KD value with respect to GDP-bound NRAS wild-type protein to KD value with respect to KRAS) [1] | HRAS/KRAS (ratio of KD value with respect to GDP-bound HRAS wild-type protein to KD value with respect to KRAS) [2] | Kd [3, 5] | NRAS/KRAS (ratio of KD value for NRAS to KD value for KRAS) ([1]; KD ratio class) | HRAS/KRAS (ratio of KD value for HRAS to KD value for KRAS) ([2]; KD ratio class) | Kd ([3]; SPR, Single Cycle Kinetics, 1:1 binding model) |
| --- | --- | --- | --- | --- | --- | --- | --- | --- | --- | --- |
| CC[C@H](C)[C@@H]1NC(=O)[C@H](CC)N(C)C(=O)C[C@@H](C(=O)N(C)C)N(C)C(=O)[C@H](C2CCCC2)N(C)C(=O)C2(CCC2)NC(=O)[C@@H]2CCN2C(=O)[C@H](CCc2cc(F)c(C(F)(F)F)c(F)c2)NC(=O)CN(C)C(=O)[C@H](Cc2ccc(C(F)(F)F)cc2)N2CC/C=C\C[C@@H](C2=O)N(C)C(=O)CN(C)C1=O [PP1139] | A (a compound having 10 or more and less than 20 is denoted as A) | A (a compound having 10 or more and less than 20 is denoted as A) | 0.43 nM | 297 nM | – | – | – | – | – | – |
| CCO[C@@H]1C[C@H]2C(=O)NC3(CC(C)(C)C3)C(=O)N(C)[C@@H](C3CCCCC3)C(=O)N(C)[C@H](C(=O)N(C)C)CC(=O)N(C)[C@@H](COC)C(=O)N[C@@H]([C@@H](C)CC)C(=O)N(C)CC(=O)N(C)[C@H]3C/C=C\CCN(C3=O)[C@@H](Cc3ccc(C(F)(F)F)cc3)C(=O)N(C)CC(=O)N[C@@H](CCc3ccc(Cl)c(Cl)c3)C(=O)N2C1 [PP2661] | – | – | – | 13.4 nM | AA (a compound having 20 or more is denoted as AA) | A (a compound having 10 or more and less than 20 is denoted as A) | 0.27 nM | – | – | – |
| CCC[C@H]1C(=O)N[C@@H]([C@@H](C)CC)C(=O)N(C)CC(=O)N(C)[C@H]2C/C=C\CCN(C2=O)[C@@H](CC2CCC(F)(F)CC2)C(=O)N(C)CC(=O)N[C@@H](CCc2ccc(C(F)(F)F)c(OC)c2)C(=O)N2C[C@@H](C)C[C@H]2C(=O)NC2(CC(C)(C)C2)C(=O)N(C)[C@@H](C(CC)CC)C(=O)N(C)[C@H](C(=O)N(C)C)CC(=O)N1C [PP2497] | A (a compound having 10 or more and less than 20 is denoted as A) | A (a compound having 10 or more and less than 20 is denoted as A) | 1.5 nM | 84.8 nM | – | – | – | – | – | – |
| CCO[C@@H]1C[C@H]2C(=O)NC3(CCC3)C(=O)N(C)[C@@H](C3CCCC3)C(=O)N(C)[C@H](C(=O)N3CCCC3)CC(=O)N(C)[C@@H](CC(F)F)C(=O)N[C@@H]([C@@H](C)CC)C(=O)N(C)CC(=O)N(C)[C@H]3C/C=C\CCN(C3=O)[C@@H](Cc3ccc(C(F)(F)F)cc3)C(=O)N(C)CC(=O)N[C@@H](CCc3cc(F)c(C(F)(F)F)c(F)c3)C(=O)N2C1 [PP1298] | – | – | – | 11.4 nM | – | – | – | AA (a compound having 20 or more is denoted as AA) | A (a compound having 10 or more and less than 20 is denoted as A) | 0.13 nM |
| CCO[C@@H]1C[C@H]2C(=O)NC3(CCC3)C(=O)N(C)[C@@H](C3CCCC3)C(=O)N(C)[C@H](C(=O)N(C)C)CC(=O)N(C)[C@@H](C)C(=O)N[C@@H]([C@@H](C)CC)C(=O)N(C)CC(=O)N(C)[C@H]3CCCCCN(C3=O)[C@@H](Cc3ccc(F)cc3)C(=O)N(C)CC(=O)N[C@@H](CCc3cc(F)c(C(F)(F)F)c(F)c3)C(=O)N2C1 [PP1189] | B (a compound having 3 or more and less than 10 is denoted as B) | B (a compound having 3 or more and less than 10 is denoted as B) | 0.066 nM | 16.1 nM | – | – | – | – | – | – |
| CCC(CC)[C@H]1C(=O)N(C)[C@H](C(=O)N2CCCCC2)CC(=O)N(C)[C@@H](COC)C(=O)N[C@@H]([C@@H](C)CC)C(=O)N(C)CC(=O)N(C)[C@H]2C/C=C\CCN(C2=O)[C@@H](Cc2ccc(C(F)(F)F)cc2)C(=O)N(C)CC(=O)N[C@@H](CCc2ccc(Cl)c(Cl)c2)C(=O)N2C[C@H](OC(C)C)C[C@H]2C(=O)NC2(CC(C)(C)C2)C(=O)N1C [PP2612] | – | – | – | 199 nM | AA (a compound having 20 or more is denoted as AA) | A (a compound having 10 or more and less than 20 is denoted as A) | 2.4 nM | – | – | – |
